Experimental data taken from US9006241B2, “Pyrimidine derivatives” (Noviga Research AB, priority 2011, dated 2015).
pEC50: −log10 of the molar value.

Columns and labels:
Type in all cases: cell-based
[1] = tested on: CCRF-CEM cancer cells - leukemia; test: Fluorometric Microculture Cytotoxicity Assay (FMCA), CCRF-CEM; conditions: Homo sapiens, 72 h incubation
[2] = tested on: MDA-MB-231 (breast cancer); test: FMCA, MDA-MB-231; conditions: Homo sapiens, MDA-MB-231 breast cancer cells
From the text: (§1) The Fluorometric Microculture Cytotoxicity Assay, FMCA (Larsson, R., et al.; Anticancer Res, 1989, 9, 1111-1119), is a three day non-clonogenic microplate-based cell viability assay used for measurement of the cytotoxic and/or cytostatic effect of compounds in vitro (Lindhagen, E. et al.; Nat. Protoc., 2008, 3, 1364-1369). FMCA represents a valuable method to measure cytotoxicity in a number of cell types, both cell lines and primary cells from patients (Larsson, R., et al.; Int. J. Cancer, 1992, 50, 177-185; Fridborg, H., et al.; Eur. J. Cancer, 1999. 35, 424-432; Dhar, S., et al.; Br. J. Cancer, 1996, 74, 888-896).
(§2) FMCA is based on the principle that fluorescein diacetate (FDA) is converted to the fluorescent probe fluorescein by esterases in the plasma membranes of living cells. For experiments, 96 or 384-well microplates are prepared with compounds and stored at −70° C. until use. Cells are then seeded into the drug-prepared plates and placed in an incubator for 72 h. On the last day of incubation, the plates are washed and a buffer containing FDA is added and incubated with the cells for 45 minutes. Finally the fluorescence per well is measured in a fluorometer and a Survival Index % (SI) for each compound-treated well is calculated with the equation: Compound-treated cells minus blank divided by control cells minus blank. A high SI-value indicates a large percentage of living cells and vice versa.
(§3) For dose-response experiments, 384-well plates were prepared as follows:
(§4) Compounds of the invention as well comparative kinase inhibitors sorafenib sunitinib, dasatinib, pazopanib and a reference compound disclosed in WO 2009/071535 (compound #107) were diluted with PBS to a concentration ten-times higher than the desired starting concentration. Then, a Biomek 2000 liquid handling system was employed to serially dilute the compounds in a deep-well 384-well plate. From this plate, assay plates containing 5 μl compound per well were prepared with the Biomek 2000. Certain compounds precipitated when diluted with PBS, and these compounds were therefore prepared in a 96-well plate manually as described above using culture medium RPMI 1640 instead of PBS.
(§5) The compounds were also tested at five concentrations, with five times serial dilution on the following cell types: CCRF-CEM, hTERT-RPE1 (normal retinal epithelial cells), hRPTEpiC (normal renal cells), and peripheral blood mononuclear cells (PBMC). Each experiment was performed three times, except for PBMC and hRPTEpiC, which were performed twice. SI-values were calculated, graphs were plotted using GraphPadPrism 5.0 (GraphPad Software Inc. La Jolla, Calif.) and IC50-values for each cell type and compound were determined from the curves.
(§6) The compounds of the invention were also tested on further cancer cell lines related to breast cancer (MDA-MB-231; see e.g. Cailleau, R., et al.; J. Natl. Cancer Inst., 1974, 53, 661-674), teniposide-resistant leukemia (CEM/VM1 see e.g. Danks, M., et al.; Cancer Res., 1987, 47, 1297-1301), leukemia (HL-60; see e.g. Collins, S., et al.; Nature, 1977, 270, 347-349), doxorubicin-resistant lung cancer (H69AR; see e.g. Mirski, S., et al.; Cancer Res., 1987, 47, 2594-2598), myeloma (RPMI 8226; see e.g. Matsuoka, Y., et al.; Proc. Soc. Exp. Biol. Med., 1967, 125, 1246-1250), doxorubicin-resistant myeloma (8226/Dox40; see e.g. Dalton, W., et al.; Blood, 1989, 15, 747-752), lymphoma (U-937, see e.g. Sundström, C., et al.; Int. […]

[3] = tested on: CEM/VM1 (teniposide-resistant leukemia); test: FMCA, CEM/VM1; conditions: Homo sapiens, CEM/VM1 teniposide-resistant leukemia cells
From the text: as §1, §2, §3, §4, §5
as §6, with “Int. J. Cancer, 1976, 17, 565-577), vincristin-resistant lymphoma (U-937-vcr; see e.g. Botling, J., et al.; Int. J. Cancer, 1994, 58, 269-274), ovarian cancer (A2780; see e.g. Hamilton, T., et al.; Semin. Oncol., 1984, 11, 285-298), doxorubicin-resistant ovarian cancer (A2780/Adr), cisplatin-resistant ovarian cancer (A2780/Cis; see e.g. Behrens, B., et al. Cancer Res. 1987, 47, 414-418), pancreatic cancer (PANC-1, BxPC-3, and MIA PaCa-2; see e.g. Lieber, M., et al.; Int. J. Cancer, 1975, 15, 741-747; Loor, R., et al.; Clin. Lab.” for “Int.”

HL-60 (leukemia) = test: FMCA, HL-60; conditions: Homo sapiens, HL-60 leukemia cells
From the text: as §1, §2, §3, §4, §5, §6

[4] = tested on: H69AR (doxorubicin-resistant lung cancer); test: FMCA, H69AR; conditions: Homo sapiens, H69AR doxorubicin-resistant lung cancer cells
From the text: as §1, §2, §3, §4, §5
as §6, with “Int. J. Cancer, 1976, 17, 565-577), vincristin-resistant lymphoma (U-937-vcr; see e.g. Botling, J., et al.; Int. J. Cancer, 1994, 58, 269-274), ovarian cancer (A2780; see e.g. Hamilton, T., et al.; Semin. Oncol., 1984, 11, 285-298), doxorubicin-resistant ovarian cancer (A2780/Adr), cisplatin-resistant ovarian cancer (A2780/Cis; see e.g. Behrens, B., et al. Cancer Res. 1987, 47, 414-418), pancreatic cancer (PANC-1, BxPC-3, and MIA PaCa-2; see e.g. Lieber, M., et al.; Int. J. Cancer, 1975, 15, 741-747; Loor, R., et al.; Clin. Lab.” for “Int.”

RPMI 8226 (myeloma) = test: FMCA, RPMI 8226; conditions: Homo sapiens, RPMI 8226 myeloma cells
From the text: as §1, §2, §3, §4, §5
as §6, with “Int. J. Cancer, 1976, 17, 565-577), vincristin-resistant lymphoma (U-937-vcr; see e.g. Botling, J., et al.; Int. J. Cancer, 1994, 58, 269-274), ovarian cancer (A2780; see e.g. Hamilton, T., et al.; Semin. Oncol., 1984, 11, 285-298), doxorubicin-resistant ovarian cancer (A2780/Adr), cisplatin-resistant ovarian cancer (A2780/Cis; see e.g. Behrens, B., et al. Cancer Res. 1987, 47, 414-418), pancreatic cancer (PANC-1, BxPC-3, and MIA PaCa-2; see e.g. Lieber, M., et al.; Int. J. Cancer, 1975, 15, 741-747; Loor, R., et al.; Clin. Lab.” for “Int.”

[5] = tested on: 8226/Dox40 (doxorubicin-resistant myeloma); test: FMCA, 8226/Dox40; conditions: 8226/Dox40 doxorubicin-resistant myeloma cells
From the text: as §1, §2, §3, §4, §5
as §6, with “Int. J. Cancer, 1976, 17, 565-577), vincristin-resistant lymphoma (U-937-vcr; see e.g. Botling, J., et al.; Int. J. Cancer, 1994, 58, 269-274), ovarian cancer (A2780; see e.g. Hamilton, T., et al.; Semin. Oncol., 1984, 11, 285-298), doxorubicin-resistant ovarian cancer (A2780/Adr), cisplatin-resistant ovarian cancer (A2780/Cis; see e.g. Behrens, B., et al. Cancer Res. 1987, 47, 414-418), pancreatic cancer (PANC-1, BxPC-3, and MIA PaCa-2; see e.g. Lieber, M., et al.; Int. J. Cancer, 1975, 15, 741-747; Loor, R., et al.; Clin. Lab.” for “Int.”

U-937 (lymphoma) = test: FMCA, U-937; conditions: Homo sapiens, U-937 lymphoma cells
From the text: as §1, §2, §3, §4, §5
as §6, with “Int. J. Cancer, 1976, 17, 565-577), vincristin-resistant lymphoma (U-937-vcr; see e.g. Botling, J., et al.; Int. J. Cancer, 1994, 58, 269-274), ovarian cancer (A2780; see e.g. Hamilton, T., et al.; Semin. Oncol., 1984, 11, 285-298), doxorubicin-resistant ovarian cancer (A2780/Adr), cisplatin-resistant ovarian cancer (A2780/Cis; see e.g. Behrens, B., et al. Cancer Res. 1987, 47, 414-418), pancreatic cancer (PANC-1, BxPC-3, and MIA PaCa-2; see e.g. Lieber, M., et al.; Int. J. Cancer, 1975, 15, 741-747; Loor, R., et al.; Clin. Lab.” for “Int.”

[6] = tested on: U-937-vcr (vincristin-resistant lymphoma); test: FMCA, U-937-vcr; conditions: U-937-vcr vincristin-resistant lymphoma cells
From the text: as §1, §2, §3, §4, §5
as §6, with “Int. J. Cancer, 1976, 17, 565-577), vincristin-resistant lymphoma (U-937-vcr; see e.g. Botling, J., et al.; Int. J. Cancer, 1994, 58, 269-274), ovarian cancer (A2780; see e.g. Hamilton, T., et al.; Semin. Oncol., 1984, 11, 285-298), doxorubicin-resistant ovarian cancer (A2780/Adr), cisplatin-resistant ovarian cancer (A2780/Cis; see e.g. Behrens, B., et al. Cancer Res. 1987, 47, 414-418), pancreatic cancer (PANC-1, BxPC-3, and MIA PaCa-2; see e.g. Lieber, M., et al.; Int. J. Cancer, 1975, 15, 741-747; Loor, R., et al.; Clin. Lab.” for “Int.”

A2780 (ovarian cancer) = test: FMCA, A2780; conditions: Homo sapiens, A2780 ovarian cancer cells
From the text: as §1, §2, §3, §4, §5
as §6, with “Int. J. Cancer, 1976, 17, 565-577), vincristin-resistant lymphoma (U-937-vcr; see e.g. Botling, J., et al.; Int. J. Cancer, 1994, 58, 269-274), ovarian cancer (A2780; see e.g. Hamilton, T., et al.; Semin. Oncol., 1984, 11, 285-298), doxorubicin-resistant ovarian cancer (A2780/Adr), cisplatin-resistant ovarian cancer (A2780/Cis; see e.g. Behrens, B., et al. Cancer Res. 1987, 47, 414-418), pancreatic cancer (PANC-1, BxPC-3, and MIA PaCa-2; see e.g. Lieber, M., et al.; Int. J. Cancer, 1975, 15, 741-747; Loor, R., et al.; Clin. Lab.” for “Int.”

[7] = tested on: A2780/Adr (doxorubicin-resistant ovarian cancer); test: FMCA, A2780/Adr; conditions: A2780/Adr doxorubicin-resistant ovarian cancer cells
From the text: as §1, §2, §3, §4, §5
as §6, with “Int. J. Cancer, 1976, 17, 565-577), vincristin-resistant lymphoma (U-937-vcr; see e.g. Botling, J., et al.; Int. J. Cancer, 1994, 58, 269-274), ovarian cancer (A2780; see e.g. Hamilton, T., et al.; Semin. Oncol., 1984, 11, 285-298), doxorubicin-resistant ovarian cancer (A2780/Adr), cisplatin-resistant ovarian cancer (A2780/Cis; see e.g. Behrens, B., et al. Cancer Res. 1987, 47, 414-418), pancreatic cancer (PANC-1, BxPC-3, and MIA PaCa-2; see e.g. Lieber, M., et al.; Int. J. Cancer, 1975, 15, 741-747; Loor, R., et al.; Clin. Lab.” for “Int.”

[8] = tested on: A2780/Cis (cisplatin-resistant ovarian cancer); test: FMCA, A2780/Cis; conditions: A2780cis, A2780/Cis cisplatin-resistant ovarian cancer cells
From the text: as §1, §2, §3, §4, §5
as §6, with “Int. J. Cancer, 1976, 17, 565-577), vincristin-resistant lymphoma (U-937-vcr; see e.g. Botling, J., et al.; Int. J. Cancer, 1994, 58, 269-274), ovarian cancer (A2780; see e.g. Hamilton, T., et al.; Semin. Oncol., 1984, 11, 285-298), doxorubicin-resistant ovarian cancer (A2780/Adr), cisplatin-resistant ovarian cancer (A2780/Cis; see e.g. Behrens, B., et al. Cancer Res. 1987, 47, 414-418), pancreatic cancer (PANC-1, BxPC-3, and MIA PaCa-2; see e.g. Lieber, M., et al.; Int. J. Cancer, 1975, 15, 741-747; Loor, R., et al.; Clin. Lab.” for “Int.”

[9] = tested on: BxPC-3 (pancreatic cancer); test: FMCA, BxPC-3; conditions: Homo sapiens, BxPC-3 pancreatic cancer cells
From the text: as §1, §2, §3, §4, §5, §6

[10] = tested on: PANC-1 (pancreatic cancer); test: FMCA, PANC-1; conditions: Homo sapiens, PANC-1 pancreatic cancer cells
From the text: as §1, §2, §3, §4, §5, §6

[11] = tested on: MIA PaCa-2 (pancreatic cancer); test: FMCA, MIA PaCa-2; conditions: Homo sapiens, MIA PaCa-2 pancreatic cancer cells
From the text: as §1, §2, §3, §4, §5, §6

PC-3 (prostate cancer) = test: FMCA, PC-3; conditions: PC-3 prostate cancer cells
From the text: as §1, §2, §3, §4, §5, §6

SMILES	pEC50 [1]	pEC50 [2]	pEC50 [3]	pEC50 (HL-60 (leukemia))	pEC50 [4]	pEC50 (RPMI 8226 (myeloma))	pEC50 [5]	pEC50 (U-937 (lymphoma))	pEC50 [6]	pEC50 (A2780 (ovarian cancer))	pEC50 [7]	pEC50 [8]	pEC50 [9]	pEC50 [10]	pEC50 [11]	pEC50 (PC-3 (prostate cancer))
CCOc1ccc2[nH]cc(CCNc3nccc(Nc4ccc5[nH]c(C)cc5c4)n3)c2c1 [Example 5, N^2-[2-(5-ethoxy-1H-indol-3-yl)ethyl]-N^4-(2-methyl-1H-indol-5-yl)pyrimidine-2,4-diamine]	7.82	7.24	7.77	8.09	7.03	7.38	6.80	7.66	7.70	7.29	6.74	7.48	7.26	6.37	7.74	6.82
COc1ccc2[nH]cc(CCNc3nccc(Nc4ccc5[nH]c(CO)cc5c4)n3)c2c1 [Example 15, (5-{2-[2-(5-methoxy-1H-indol-3-yl)ethylamino]pyrimidin-4-ylamino}-1H-indol-2-yl)methanol]	7.57	6.82	7.15	7.51	6.92	5.85	5.37	7.43	7.16	7.26	6.01	7.02	6.92	5.85	7.24	6.51
